Source: the supplement of paper PMC10307832

What follows are cell lines tested with CC(C)=CC[C@@H](O)C1=CC(=O)c2c(O)ccc(O)c2C1=O [Shikonin] + N=C(N)NC(=N)NCCc1ccccc1 [Phenformin] (partner 250 µM) (assay: relative viability (nuclei count vs DMSO), 5 days (fraction); higher = more cells survive). Details: first compound 0.01 µM.
Procedure, shortened: (§1)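 Lung cancer cell lines in 1536-well plates got either a single drug or a fixed anchor-drug dose together with five library-drug doses (not always all listed) in √10 steps, by pin tool, on the day after seeding. Nuclei were counted after 5 days, and relative viability is the treated-to-vehicle ratio of nuclei counts. Values are medians of duplicate plates.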

Going from NCI-H2342 to NCI-H1623, the relative viability falls from 0.679 to 0.551.

Going from PC-14 to NCI-H1650, the relative viability falls from 0.587 to 0.443.

Going from NCI-H2009 to NCI-H1993, the relative viability rises from 0.475 to 0.504.

Going from NCI-H520 to PC-3 [JPC-3], the relative viability falls from 0.504 to 0.488.

First: LCLC-103H
Second: NCI-H647
The relative viability of the first is lower: 0.372 for the first, 0.572 for the second.

Compared with NCI-H2228, EMC-BAC-2 is higher in relative viability: 0.31 for the first, 0.516 for the second.

Compared with NCI-H2087, HCC-366 is higher in relative viability: 0.458 for the first, 0.62 for the second.

Going from NCI-H1666 to NCI-H650, the relative viability falls from 0.558 to 0.462.

Compared with LK-2, NCI-H2126 is higher in relative viability: 0.434 for the first, 0.518 for the second.

Compared with SK-MES-1, H3255 is lower in relative viability: 0.747 for the first, 0.398 for the second.

Going from COR-L23 to COR-L 105, the relative viability falls from 0.462 to 0.452.

Going from LOU-NH91 to ChaGo-K-1, the relative viability falls from 0.685 to 0.475.

First: NCI-H2170
Second: NCI-H3122
The relative viability of the first is higher: 0.399 for the first, 0.391 for the second.

Going from HOP-62 to HCC-44, the relative viability falls from 0.762 to 0.212.

First: A549
Second: NCI-H522
The relative viability of the first is lower: 0.14 for the first, 0.663 for the second.

Going from LU99A to BEN, the relative viability falls from 0.859 to 0.298.

First: HARA
Second: SW 900
The relative viability of the first is lower: 0.431 for the first, 0.667 for the second.

Compared with HCC-78, NCI-H441 is higher in relative viability: 0.66 for the first, 0.941 for the second.

First: LCLC-97TM1
Second: NCI-H596
The relative viability of the first is lower: 0.495 for the first, 0.798 for the second.

NCI-H1563 gave a relative viability of 0.662.

Same assay, conditions: first compound 0.1 µM

First: NCI-H2342
Second: NCI-H1623
The relative viability of the first is lower: 0.538 for the first, 0.601 for the second.

Going from PC-14 to NCI-H1650, the relative viability falls from 0.619 to 0.488.

Compared with NCI-H2009, NCI-H1993 is higher in relative viability: 0.568 for the first, 0.579 for the second.

First: NCI-H520
Second: PC-3 [JPC-3]
The relative viability of the first is higher: 0.809 for the first, 0.231 for the second.

Compared with LCLC-103H, NCI-H647 is higher in relative viability: 0.335 for the first, 0.677 for the second.

Compared with NCI-H2228, EMC-BAC-2 is higher in relative viability: 0.287 for the first, 0.607 for the second.

First: NCI-H2087
Second: HCC-366
The relative viability of the first is lower: 0.484 for the first, 0.644 for the second.

Going from NCI-H1666 to NCI-H650, the relative viability falls from 0.605 to 0.462.

Compared with LK-2, NCI-H2126 is higher in relative viability: 0.496 for the first, 0.571 for the second.

Compared with SK-MES-1, H3255 is lower in relative viability: 0.677 for the first, 0.384 for the second.

First: COR-L23
Second: COR-L 105
The relative viability of the first is lower: 0.438 for the first, 0.507 for the second.

Compared with LOU-NH91, ChaGo-K-1 is lower in relative viability: 0.755 for the first, 0.542 for the second.

Compared with NCI-H2170, NCI-H3122 is lower in relative viability: 0.445 for the first, 0.417 for the second.

First: HOP-62
Second: HCC-44
The relative viability of the first is higher: 0.694 for the first, 0.162 for the second.

First: A549
Second: NCI-H522
The relative viability of the first is lower: 0.355 for the first, 0.713 for the second.

First: LU99A
Second: BEN
The relative viability of the first is higher: 1.15 for the first, 0.286 for the second.

Going from HARA to SW 900, the relative viability falls from 0.707 to 0.589.

Compared with HCC-78, NCI-H441 is higher in relative viability: 0.705 for the first, 1.03 for the second.

First: LCLC-97TM1
Second: NCI-H596
The relative viability of the first is lower: 0.449 for the first, 0.858 for the second.

With NCI-H1563 the relative viability was 0.723.

Same assay, conditions: first compound 0.3162 µM

Compared with NCI-H2342, NCI-H1623 is lower in relative viability: 0.653 for the first, 0.592 for the second.

Compared with PC-14, NCI-H1650 is lower in relative viability: 0.597 for the first, 0.335 for the second.

First: NCI-H2009
Second: NCI-H1993
The relative viability of the first is lower: 0.433 for the first, 0.555 for the second.

Compared with NCI-H520, PC-3 [JPC-3] is lower in relative viability: 0.567 for the first, 0.477 for the second.

Going from LCLC-103H to NCI-H647, the relative viability rises from 0.341 to 0.477.

First: NCI-H2228
Second: EMC-BAC-2
The relative viability of the first is lower: 0.283 for the first, 0.569 for the second.

Compared with NCI-H2087, HCC-366 is higher in relative viability: 0.447 for the first, 0.663 for the second.

Compared with NCI-H1666, NCI-H650 is lower in relative viability: 0.552 for the first, 0.447 for the second.

Going from LK-2 to NCI-H2126, the relative viability rises from 0.442 to 0.565.

Going from SK-MES-1 to H3255, the relative viability falls from 0.72 to 0.353.

First: COR-L23
Second: COR-L 105
The relative viability of the first is higher: 0.465 for the first, 0.423 for the second.

Going from LOU-NH91 to ChaGo-K-1, the relative viability falls from 0.754 to 0.543.

First: NCI-H2170
Second: NCI-H3122
The relative viability of the first is higher: 0.449 for the first, 0.391 for the second.

Compared with HOP-62, HCC-44 is lower in relative viability: 0.744 for the first, 0.226 for the second.

First: A549
Second: NCI-H522
The relative viability of the first is lower: 0.12 for the first, 0.601 for the second.

Going from LU99A to BEN, the relative viability falls from 0.758 to 0.279.

Going from HARA to SW 900, the relative viability rises from 0.538 to 0.666.

First: HCC-78
Second: NCI-H441
The relative viability of the first is lower: 0.697 for the first, 0.761 for the second.

First: LCLC-97TM1
Second: NCI-H596
The relative viability of the first is lower: 0.437 for the first, 0.893 for the second.

In the case of NCI-H1563, the relative viability is reported as 0.643.

Same assay, conditions: first compound 1 µM

First: NCI-H2342
Second: NCI-H1623
The relative viability of the first is lower: 0.587 for the first, 0.603 for the second.

Compared with PC-14, NCI-H1650 is lower in relative viability: 0.637 for the first, 0.254 for the second.

Going from NCI-H2009 to NCI-H1993, the relative viability rises from 0.181 to 0.499.

Compared with NCI-H520, PC-3 [JPC-3] is lower in relative viability: 0.6 for the first, 0.428 for the second.

Compared with LCLC-103H, NCI-H647 is higher in relative viability: 0.34 for the first, 0.538 for the second.

First: NCI-H2228
Second: EMC-BAC-2
The relative viability of the first is lower: 0.289 for the first, 0.517 for the second.

Compared with NCI-H2087, HCC-366 is higher in relative viability: 0.463 for the first, 0.597 for the second.

Compared with NCI-H1666, NCI-H650 is lower in relative viability: 0.548 for the first, 0.426 for the second.

First: LK-2
Second: NCI-H2126
The relative viability of the first is lower: 0.466 for the first, 0.513 for the second.

First: SK-MES-1
Second: H3255
The relative viability of the first is higher: 0.638 for the first, 0.35 for the second.

Compared with COR-L23, COR-L 105 is higher in relative viability: 0.406 for the first, 0.466 for the second.

Compared with LOU-NH91, ChaGo-K-1 is lower in relative viability: 0.715 for the first, 0.471 for the second.

Going from NCI-H2170 to NCI-H3122, the relative viability falls from 0.431 to 0.399.

Going from HOP-62 to HCC-44, the relative viability falls from 0.723 to 0.267.

Going from A549 to NCI-H522, the relative viability rises from 0.122 to 0.623.

Going from LU99A to BEN, the relative viability falls from 0.791 to 0.232.

First: HARA
Second: SW 900
The relative viability of the first is lower: 0.491 for the first, 0.661 for the second.

Going from HCC-78 to NCI-H441, the relative viability rises from 0.806 to 0.815.

Compared with LCLC-97TM1, NCI-H596 is higher in relative viability: 0.472 for the first, 0.897 for the second.

With NCI-H1563 the relative viability was 0.673.

Each cell line was assayed with CC(C)N(CCCNC(=O)Nc1ccc(C(C)(C)C)cc1)C[C@H]1O[C@@H](n2ccc3c(N)ncnc32)[C@H](O)[C@@H]1O + N=C(N)NC(=N)NCCc1ccccc1 [Phenformin] (partner 250 µM) in the same assay as above. Details: first compound 0.08 µM.
Procedure, shortened: as §1

Going from NCI-H2342 to NCI-H1623, the relative viability falls from 0.574 to 0.547.

First: PC-14
Second: NCI-H1650
The relative viability of the first is higher: 0.637 for the first, 0.311 for the second.
